Results: patent publication US20240158446A1, “CYCLIC COMPOUND HAVING SELECTIVE INHIBITORY ACTION ON KRAS OVER HRAS AND NRAS” (CHUGAI SEIYAKU KABUSHIKI KAISHA, priority 2021, published 2024)

Legend:
[1] = target: GDP-bound HRAS wild-type protein (Homo sapiens, UniProt P01112); assay: Binding to HRAS by surface plasmon resonance (SPR), Single Cycle Kinetics; conditions: SPR KD ratio HRAS/KRAS, class symbols
[2] = target: GDP-bound NRAS wild-type protein (Homo sapiens, UniProt P01111); assay: Binding to NRAS by surface plasmon resonance (SPR), Single Cycle Kinetics; conditions: SPR KD ratio NRAS/KRAS, class symbols
[3] = target: GDP-bound KRAS wild-type protein (Homo sapiens, UniProt P01116); assay: Binding to KRAS by surface plasmon resonance (SPR), Single Cycle Kinetics; conditions: SPR Single Cycle Kinetics, GDP-bound KRAS wild-type protein, 1:1 binding model; read-out: KRAS KD
[4] = test system: human lung cancer strain NCI-H441;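 also: cell proliferation inhibition after four days measured by CellTiter-Glo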

GDP-bound NRAS wild-type protein, sequence (P01111 whole entry): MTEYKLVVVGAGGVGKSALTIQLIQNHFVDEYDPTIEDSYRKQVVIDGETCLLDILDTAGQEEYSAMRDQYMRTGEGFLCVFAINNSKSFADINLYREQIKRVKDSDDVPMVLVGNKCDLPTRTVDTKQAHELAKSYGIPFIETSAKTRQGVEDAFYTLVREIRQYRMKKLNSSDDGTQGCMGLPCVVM
GDP-bound HRAS wild-type protein, sequence (P01112 whole entry): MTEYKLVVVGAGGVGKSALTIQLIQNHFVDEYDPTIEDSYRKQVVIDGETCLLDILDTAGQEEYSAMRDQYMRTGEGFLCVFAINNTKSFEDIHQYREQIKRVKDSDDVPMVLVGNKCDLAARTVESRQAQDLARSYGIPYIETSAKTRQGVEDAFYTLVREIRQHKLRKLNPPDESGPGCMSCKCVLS
GDP-bound KRAS wild-type protein, sequence (P01116 whole entry): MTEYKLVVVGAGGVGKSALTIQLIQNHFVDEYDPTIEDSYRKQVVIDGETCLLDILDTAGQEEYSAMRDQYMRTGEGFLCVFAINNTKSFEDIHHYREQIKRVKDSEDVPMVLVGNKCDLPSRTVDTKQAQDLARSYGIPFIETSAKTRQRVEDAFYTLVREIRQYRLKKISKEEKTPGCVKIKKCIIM

SMILES | HRAS/KRAS (ratio of KD value with respect to GDP-bound HRAS wild-type protein to KD value with respect to KRAS) [1] | NRAS/KRAS (ratio of KD value with respect to GDP-bound NRAS wild-type protein to KD value with respect to KRAS) [2] | Kd [3] | IC50 [4]
CCCOC[C@H]1C(=O)N[C@@H]([C@@H](C)CC)C(=O)N(C)CC(=O)N(C)[C@H]2C/C=C\CCN(C2=O)[C@@H](Cc2ccc(C)cc2)C(=O)N(C)CC(=O)N[C@@H](CCc2ccc(C(F)(F)F)c(OC)c2)C(=O)N2C[C@H](OCC)C[C@H]2C(=O)NC2(CC(C)(C)C2)C(=O)N(C)[C@@H](CC(C)(C)C)C(=O)N(C)[C@H](C(=O)N(C)C)CC(=O)N1C [PP2712] | B (a compound having 3 or more and less than 10 is denoted as B) | A (a compound having 10 or more and less than 20 is denoted as A) | 0.11 nM | 6.3 nM
CCC[C@H]1C(=O)N[C@@H]([C@@H](C)CC)C(=O)N(C)CC(=O)N(C)[C@H]2C/C=C\CCN(C2=O)[C@@H](Cc2ccc(C)cc2)C(=O)N(C)CC(=O)N[C@@H](CCc2ccc(Cl)c(Cl)c2)C(=O)N2C[C@H](OCC)C[C@H]2C(=O)NC2(CC(C)(C)C2)C(=O)N(C)[C@@H](CC(C)(C)C)C(=O)N(C)[C@H](C(=O)N(C)C)CC(=O)N1C [PP2714] | A (a compound having 10 or more and less than 20 is denoted as A) | A (a compound having 10 or more and less than 20 is denoted as A) | 0.25 nM | 13.2 nM
CCCOC[C@H]1C(=O)N[C@@H]([C@@H](C)CC)C(=O)N(C)CC(=O)N(C)[C@H]2C/C=C\CCN(C2=O)[C@@H](Cc2ccc(C)cc2)C(=O)N(C)CC(=O)N[C@@H](CCc2ccc(Cl)c(Cl)c2)C(=O)N2C[C@H](OCC)C[C@H]2C(=O)NC2(CC(C)(C)C2)C(=O)N(C)[C@@H](CC(C)(C)C)C(=O)N(C)[C@H](C(=O)N(C)C)CC(=O)N1C [PP2716] | A (a compound having 10 or more and less than 20 is denoted as A) | A (a compound having 10 or more and less than 20 is denoted as A) | 0.34 nM | 13.8 nM
CCC[C@H]1C(=O)N[C@@H]([C@@H](C)CC)C(=O)N(C2CC2)CC(=O)N(C)[C@H]2C/C=C\CCN(C2=O)[C@@H](Cc2ccc(C)cc2)C(=O)N(C)CC(=O)N[C@@H](CCc2cc(F)c(C(F)(F)F)c(F)c2)C(=O)N2C[C@H](OCC)C[C@H]2C(=O)NC2(CC(C)(C)C2)C(=O)N(C)[C@@H](CC(C)(C)C)C(=O)N(C)[C@H](C(=O)N(C)C)CC(=O)N1C [PP2718] | A (a compound having 10 or more and less than 20 is denoted as A) | A (a compound having 10 or more and less than 20 is denoted as A) | 0.33 nM | 7.6 nM
CCOC[C@H]1C(=O)N[C@@H]([C@@H](C)CC)C(=O)N(C2CC2)CC(=O)N(C)[C@H]2C/C=C\CCN(C2=O)[C@@H](Cc2ccc(C)cc2)C(=O)N(C)CC(=O)N[C@@H](CCc2cc(F)c(C(F)(F)F)c(F)c2)C(=O)N2C[C@H](OCC)C[C@H]2C(=O)NC2(CC(C)(C)C2)C(=O)N(C)[C@@H](CC(C)(C)C)C(=O)N(C)[C@H](C(=O)N(C)C)CC(=O)N1C [PP2720] | A (a compound having 10 or more and less than 20 is denoted as A) | A (a compound having 10 or more and less than 20 is denoted as A) | 0.35 nM | 7.7 nM
CCC[C@H]1C(=O)N[C@@H]([C@@H](C)CC)C(=O)N(C2CC2)CC(=O)N(C)[C@H]2C/C=C\CCN(C2=O)[C@@H](Cc2ccc(C)cc2)C(=O)N(C)CC(=O)N[C@@H](CCc2ccc(C(F)(F)F)c(OC)c2)C(=O)N2C[C@H](OCC)C[C@H]2C(=O)NC2(CC(C)(C)C2)C(=O)N(C)[C@@H](CC(C)(C)C)C(=O)N(C)[C@H](C(=O)N(C)C)CC(=O)N1C [PP2722] | B (a compound having 3 or more and less than 10 is denoted as B) | B (a compound having 3 or more and less than 10 is denoted as B) | 0.4 nM | 13.9 nM
CCOC[C@H]1C(=O)N[C@@H]([C@@H](C)CC)C(=O)N(C2CC2)CC(=O)N(C)[C@H]2C/C=C\CCN(C2=O)[C@@H](Cc2ccc(C)cc2)C(=O)N(C)CC(=O)N[C@@H](CCc2ccc(C(F)(F)F)c(OC)c2)C(=O)N2C[C@H](OCC)C[C@H]2C(=O)NC2(CC(C)(C)C2)C(=O)N(C)[C@@H](CC(C)(C)C)C(=O)N(C)[C@H](C(=O)N(C)C)CC(=O)N1C [PP2724] | B (a compound having 3 or more and less than 10 is denoted as B) | A (a compound having 10 or more and less than 20 is denoted as A) | 0.43 nM | 20 nM
CCC[C@H]1C(=O)N[C@@H]([C@@H](C)CC)C(=O)N(C2CC2)CC(=O)N(C)[C@H]2C/C=C\CCN(C2=O)[C@@H](Cc2ccc(C)cc2)C(=O)N(C)CC(=O)N[C@@H](CCc2ccc(Cl)c(Cl)c2)C(=O)N2C[C@H](OCC)C[C@H]2C(=O)NC2(CC(C)(C)C2)C(=O)N(C)[C@@H](CC(C)(C)C)C(=O)N(C)[C@H](C(=O)N(C)C)CC(=O)N1C [PP2726] | A (a compound having 10 or more and less than 20 is denoted as A) | AA (a compound having 20 or more is denoted as AA) | 1.1 nM | 51 nM
CCOC[C@H]1C(=O)N[C@@H]([C@@H](C)CC)C(=O)N(C2CC2)CC(=O)N(C)[C@H]2C/C=C\CCN(C2=O)[C@@H](Cc2ccc(C)cc2)C(=O)N(C)CC(=O)N[C@@H](CCc2ccc(Cl)c(Cl)c2)C(=O)N2C[C@H](OCC)C[C@H]2C(=O)NC2(CC(C)(C)C2)C(=O)N(C)[C@@H](CC(C)(C)C)C(=O)N(C)[C@H](C(=O)N(C)C)CC(=O)N1C [PP2728] | A (a compound having 10 or more and less than 20 is denoted as A) | AA (a compound having 20 or more is denoted as AA) | 1.1 nM | 54.3 nM
CCOC[C@H]1C(=O)N[C@@H]([C@@H](C)CC)C(=O)N(C)CC(=O)N(C)[C@H]2C/C=C\CCN(C2=O)[C@@H](Cc2ccc(C(F)(F)F)cc2)C(=O)N(C)CC(=O)N[C@@H](CCc2cc(F)c(C(F)(F)F)c(F)c2)C(=O)N2C[C@H](OCC)C[C@H]2C(=O)NC2(CC(C)(C)C2)C(=O)N(C)[C@@H](CC(C)(C)C)C(=O)N(C)[C@H](C(=O)N(C)C)CC(=O)N1C [PP2732] | A (a compound having 10 or more and less than 20 is denoted as A) | A (a compound having 10 or more and less than 20 is denoted as A) | 0.067 nM | 5.3 nM
CCC[C@H]1C(=O)N[C@@H]([C@@H](C)CC)C(=O)N(C)CC(=O)N(C)[C@H]2C/C=C\CCN(C2=O)[C@@H](Cc2ccc(C(F)(F)F)cc2)C(=O)N(C)CC(=O)N[C@@H](CCc2ccc(C(F)(F)F)c(OC)c2)C(=O)N2C[C@H](OCC)C[C@H]2C(=O)NC2(CC(C)(C)C2)C(=O)N(C)[C@@H](CC(C)(C)C)C(=O)N(C)[C@H](C(=O)N(C)C)CC(=O)N1C [PP2734] | B (a compound having 3 or more and less than 10 is denoted as B) | A (a compound having 10 or more and less than 20 is denoted as A) | 0.1 nM | 3.1 nM
CCOC[C@H]1C(=O)N[C@@H]([C@@H](C)CC)C(=O)N(C)CC(=O)N(C)[C@H]2C/C=C\CCN(C2=O)[C@@H](Cc2ccc(C(F)(F)F)cc2)C(=O)N(C)CC(=O)N[C@@H](CCc2ccc(C(F)(F)F)c(OC)c2)C(=O)N2C[C@H](OCC)C[C@H]2C(=O)NC2(CC(C)(C)C2)C(=O)N(C)[C@@H](CC(C)(C)C)C(=O)N(C)[C@H](C(=O)N(C)C)CC(=O)N1C [PP2736] | A (a compound having 10 or more and less than 20 is denoted as A) | A (a compound having 10 or more and less than 20 is denoted as A) | 0.061 nM | 7.5 nM
CCC[C@H]1C(=O)N[C@@H]([C@@H](C)CC)C(=O)N(C)CC(=O)N(C)[C@H]2C/C=C\CCN(C2=O)[C@@H](Cc2ccc(C(F)(F)F)cc2)C(=O)N(C)CC(=O)N[C@@H](CCc2ccc(Cl)c(Cl)c2)C(=O)N2C[C@H](OCC)C[C@H]2C(=O)NC2(CC(C)(C)C2)C(=O)N(C)[C@@H](CC(C)(C)C)C(=O)N(C)[C@H](C(=O)N(C)C)CC(=O)N1C [PP2738] | A (a compound having 10 or more and less than 20 is denoted as A) | AA (a compound having 20 or more is denoted as AA) | 0.17 nM | 8.5 nM
